# Test results as given in US12714576B2, “System and method for treatment of bone” (SHANKAR RAJESWARAN M.D. LLC, priority 2020, dated 2026).
# Several values for one entry are separate records, joined by “and”; a condition that tells them apart may be missing. Equal values may be shown once.
# Test system: unicameral bone cyst (UBC)
# Assay: Retrospective evaluation of pediatric patients with UBC treated by doxycycline chemical curettage (sclerotherapy) and injection of synthetic bone graft
# Type: in vivo
# Procedure: Summary. Retrospective evaluation of twelve pediatric patients, ages 5-14 years, undergoing treatment for a UBC, at a single institution. All UBCs were treated in a single, minimally invasive, image guided procedure using percutaneous needle access into the UBC followed by chemical curettage (a form of sclerotherapy) and injection of regenerative synthetic graft. Patients were followed clinically, and with serial radiographs, to evaluate for healing and complications. Mean time to return to full activity was 2.2 months post procedure, with a mean clinical follow-up time of 9.2 months.
# Methods. Fifteen patients were initially enrolled in this IRB approved study from August 2018 through May 2020. The diagnosis of UBC was made via radiographs and/or magnetic resonance imaging (MRI).
# Combination sclerotherapy and graft injection with CaSO4—CaPO4 was performed in a single setting as an outpatient procedure with an average procedure time of 45 minutes (range 30-60 minutes). Mean volume of doxycycline instilled during cyst sclerotherapy was 52 mL (20 mg/ml and a range 20-100 mL). Mean volume of CaSO4—CaPO4 synthetic graft material administered was 28 mL (range 4-90 mL).
# Patients were followed clinically for a minimum of three months post procedure, with radiographs performed at follow-up visits. One patient was excluded as they had imaging consistent with a fractured UBC that had subsequently rehealed into multiple cysts, and 2 other patients were excluded secondary to follow up of less than 3 months.
# Assessment of treatment response was evaluated using the Modified Neer Classification of Radiographic Healing, as shown above in Table 1. All radiographs were evaluated by four attending pediatric radiologists.
# Procedure Technique. All procedures were performed under general anesthesia. For each procedure, the cyst was localized under fluoroscopy, and the upper and lower margins of the cyst were marked on the skin. Ultrasound mapping of the area of concern was performed to identify critical structures such as arteries or nerves. However, the cyst itself could often be visualized sonographically due to associated cortical thinning.
# A 5 mm incision was made at each cyst margin as marked on the skin, and an 11-gauge or 14-gauge “treatment” needle was advanced into the cyst percutaneously. Choice of needle gauge was determined by cyst size and the expected amount of synthetic graft to be administered, with 11-gauge needles used in larger cysts. A second 5 mm incision was made along the remaining marked margin of the lesion, and a 14-gauge or 16-gauge “venting” needle was placed.
# Next, Omnipaque-180 (GE Healthcare), a water-soluble iodinated contrast, was diluted with sterile saline in a 1:1 ratio and was injected via the treatment needle during fluoroscopic visualization, taking care to ensure fluid egress via the venting needle. Contrast injection was performed to confirm a cystic nature of the UBC, to ensure adequate diffusion of the injected contrast throughout the cystic cavity, as well as to assess the presence of unexpected significant vascular outflow. Occasionally, an incomplete septation within the cyst was encountered, likely secondary healing change related to a prior pathologic fracture or prior treatment.
# Doxycycline (20 mg/mL), in a volume to match the cyst volume, was injected through the treatment needle and aspirated through the venting needle in a push-pull fashion, irrigating the cyst for one minute. The doxycycline was allowed to dwell for another nine minutes. A second round of sclerosant irrigation was then performed using similar technique and fresh doxycycline solution; thus, the total duration of doxycycline sclerotherapy was 20 minutes.
# Utilizing the cyst volume determined during initial contrast injection, a similar volume of synthetic bone graft material was prepared and injected through the treatment needle during live fluoroscopy. […]
smiles,measurement,setting,value
C[C@H]1c2cccc(O)c2C(=O)C2=C(O)[C@]3(O)C(=O)C(C(N)=O)=C(O)[C@@H](N(C)C)[C@@H]3[C@@H](O)[C@@H]21 [doxycycline],Patients with healing of the UBC (Modified Neer class 1),"10 of 12 patients, most recent follow-up radiographs",83%
same,Patients showing healed cysts (Modified Neer classes 1 or 2),"11 of 12 patients, most recent follow-up",91.7%
same,Adverse events related to the procedures,12 patients,no adverse events related to the procedures
same,Perioperative complications,12 patients,No perioperative complications were observed
same,Return to Activities (mo),"one line per patient (patients 1-12), doxycycline 20 mg/mL sclerotherapy followed by CaSO4-CaPO4 synthetic graft (PRO-DENSE)",1.0 mo and 0.8 mo and 1.9 mo and 2.1 mo and 1.3 mo and 1.6 mo (2×) and 1.2 mo and 3.1 mo and 4.8 mo and 2.8 mo and 3.7 mo
same,Patients with healing with a small defect (Modified Neer class 2),"one of 12 patients, most recent follow-up radiographs",8%
